Tests used:
Format in all cases: functional
[1] = Cytotoxicity against Homo sapiens (human) NCI-ADR-RES cells after 48 hr by sulforhodamine B assay
A549 = assay: Cytotoxicity against Homo sapiens (human) A549 cells after 48 hr by sulforhodamine B assay; conditions: A549, 48 h
UACC-257 = assay: Cytotoxicity against Homo sapiens (human) UACC257 cells after 48 hr by sulforhodamine B assay; conditions: UACC-257, 48 h
SN12C = assay: Cytotoxicity against Homo sapiens (human) SN12C cells after 48 hr by sulforhodamine B assay
SF-268 = assay: Cytotoxicity against Homo sapiens (human) SF268 cells assessed as cell growth at 10^-4 M after 48 hr by […] assay; conditions: SF-268, 48 h, read-out: Activity
UACC-62 = assay: Cytotoxicity against Homo sapiens (human) UACC62 cells after 48 hr by sulforhodamine B assay; conditions: UACC-62, 48 h
HCT-116 = assay: Cytotoxicity against Homo sapiens (human) HCT116 cells after 48 hr by sulforhodamine B assay; conditions: HCT-116, 48 h
EKVX = assay: Cytotoxicity against Homo sapiens (human) EKVX cells after 48 hr by sulforhodamine B assay
K562 = assay: Cytotoxicity against Homo sapiens (human) K562 cells after 48 hr by sulforhodamine B assay; conditions: K562, 48 h
MDA-MB-231 = assay: Cytotoxicity against Homo sapiens (human) MDA-MB-231 cells after 48 hr by sulforhodamine B assay; conditions: MDA-MB-231, 48 h
CAKI-1 = assay: Cytotoxicity against Homo sapiens (human) Caki1 cells after 48 hr by sulforhodamine B assay; conditions: CAKI-1, 48 h
HOP-62 = assay: Cytotoxicity against Homo sapiens (human) HOP62 cells after 48 hr by sulforhodamine B assay; conditions: HOP-62, 48 h
RXF 393 = assay: Cytotoxicity against Homo sapiens (human) RXF393 cells after 48 hr by sulforhodamine B assay; conditions: RXF 393, 48 h
NCI-H322M = assay: Cytotoxicity against Homo sapiens (human) NCI-H322M cells after 48 hr by sulforhodamine B assay
SK-MEL-5 = assay: Cytotoxicity against Homo sapiens (human) SK-MEL-5 cells after 48 hr by sulforhodamine B assay; conditions: SK-MEL-5, 48 h
SF-539 = assay: Cytotoxicity against Homo sapiens (human) SF539 cells after 48 hr by sulforhodamine B assay; conditions: SF-539, 48 h
SK-MEL-2 = assay: Cytotoxicity against Homo sapiens (human) SK-MEL-2 cells after 48 hr by sulforhodamine B assay; conditions: SK-MEL-2, 48 h
U-251 = assay: Cytotoxicity against Homo sapiens (human) U251 cells after 48 hr by sulforhodamine B assay; conditions: U-251, 48 h
MOLT-4 = assay: Cytotoxicity against Homo sapiens (human) MOLT4 cells after 48 hr by sulforhodamine B assay; conditions: MOLT-4, 48 h
IGROV-1 = assay: Cytotoxicity against Homo sapiens (human) IGROV1 cells after 48 hr by sulforhodamine B assay; conditions: IGROV-1, 48 h
HT-29 = assay: Cytotoxicity against Homo sapiens (human) HT-29 cells after 48 hr by sulforhodamine B assay; conditions: HT-29, 48 h
NCI-H226 = assay: Cytotoxicity against Homo sapiens (human) NCI-H226 cells after 48 hr by sulforhodamine B assay; conditions: NCI-H226, 48 h
KM12 = assay: Cytotoxicity against Homo sapiens (human) KM12 cells after 48 hr by sulforhodamine B assay; conditions: KM12, 48 h
OVCAR-3 = assay: Cytotoxicity against Homo sapiens (human) OVCAR3 cells after 48 hr by sulforhodamine B assay; conditions: OVCAR-3, 48 h
PC-3 = assay: Cytotoxicity against Homo sapiens (human) PC3 cells after 48 hr by sulforhodamine B assay; conditions: PC-3, 48 h
NCI-H522 = assay: Cytotoxicity against Homo sapiens (human) NCI-H522 cells after 48 hr by sulforhodamine B assay; conditions: NCI-H522, 48 h
MDA-MB-435 = assay: Cytotoxicity against Homo sapiens (human) MDA-MB-435 cells after 48 hr by sulforhodamine B assay; conditions: MDA-MB-435, 48 h
NCI-H23 = assay: Cytotoxicity against Homo sapiens (human) NCI-H23 cells after 48 hr by sulforhodamine B assay; conditions: NCI-H23, 48 h
OVCAR-4 = assay: Cytotoxicity against Homo sapiens (human) OVCAR4 cells after 48 hr by sulforhodamine B assay; conditions: OVCAR-4, 48 h
HCC 2998 = assay: Cytotoxicity against Homo sapiens (human) HCC2998 cells after 48 hr by sulforhodamine B assay; conditions: HCC 2998, 48 h
[2] = read-out: LC50 (the source's name)

ClCc1ccccc1Cn1cnc2c(Cl)nc(Cl)nc21
GI50 [1]: 1.51 µM
LC50 (concentration killing 50% of cells) [1]: 6.16 µM
TGI [1]: 3.02 µM
GI50 (A549): 2.23 µM
TGI (A549): 4.67 µM
GI50 (UACC-257): 1.82 µM
LC50 (concentration killing 50% of cells) (UACC-257): 8.51 µM
TGI (UACC-257): 3.89 µM
GI50 (SN12C): 0.72 µM
LC50 (50% lethal concentration) (SN12C): 4.67 µM
TGI (SN12C): 2.04 µM
growth at 100 µM (SF-268): 0%
GI50 (UACC-62): 1.31 µM
LC50 (concentration causing 50% net cell kill) (UACC-62): 5.24 µM
TGI (UACC-62): 2.63 µM
GI50 (HCT-116): 0.19 µM
TGI (HCT-116): 0.38 µM
CC50 (HCT-116; [2]): 0.75 µM
GI50 (EKVX): 1.77 µM
TGI (EKVX): 3.23 µM
CC50 (EKVX; [2]): 5.88 µM
GI50 (K562): 0.15 µM
TGI (K562): 0.37 µM
CC50 (K562; [2]): 0.91 µM
GI50 (MDA-MB-231): 0.33 µM
LC50 (MDA-MB-231): 3.98 µM
TGI (MDA-MB-231): 1.38 µM
GI50 (CAKI-1): 0.36 µM
TGI (CAKI-1): 0.89 µM
CC50 (CAKI-1; [2]): 3.09 µM
GI50 (HOP-62): 2.04 µM
TGI (HOP-62): 3.63 µM
CC50 (HOP-62; [2]): 6.45 µM
GI50 (RXF 393): 0.1 µM
TGI (RXF 393): 0.49 µM
GI50 (NCI-H322M): 1.73 µM
TGI (NCI-H322M): 3.27 µM
CC50 (NCI-H322M; [2]): 5.88 µM
GI50 (SK-MEL-5): 0.42 µM
LC50 (SK-MEL-5): 4.26 µM
TGI (SK-MEL-5): 1.54 µM
GI50 (SF-539): 1.47 µM
LC50 (concentration killing 50% of cells) (SF-539): 5.62 µM
TGI (SF-539): 2.88 µM
GI50 (SK-MEL-2): 2.18 µM
LC50 (concentration killing 50% of cells) (SK-MEL-2): 8.51 µM
TGI (SK-MEL-2): 4.36 µM
GI50 (U-251): 0.31 µM
LC50 (concentration killing 50% of cells) (U-251): 4.57 µM
TGI (U-251): 1.02 µM
GI50 (MOLT-4): 0.2 µM
TGI (MOLT-4): 0.63 µM
CC50 (MOLT-4; [2]): 3.54 µM
GI50 (IGROV-1): 1.54 µM
LC50 (IGROV-1): 7.07 µM
TGI (IGROV-1): 3.31 µM
GI50 (HT-29): 0.42 µM
TGI (HT-29): > 100 µM
CC50 (HT-29; [2]): > 100 µM
GI50 (NCI-H226): 1.73 µM
TGI (NCI-H226): 3.38 µM
CC50 (NCI-H226; [2]): 6.76 µM
GI50 (KM12): 1.47 µM
TGI (KM12): 2.95 µM
CC50 (KM12; [2]): 5.88 µM
GI50 (OVCAR-3): 0.21 µM
LC50 (OVCAR-3): 1.54 µM
TGI (OVCAR-3): 0.51 µM
GI50 (PC-3): 0.44 µM
LC50 (concentration causing 50% cell kill) (PC-3): 5.12 µM
TGI (PC-3): 1.62 µM
GI50 (NCI-H522): 0.58 µM
TGI (NCI-H522): 1.99 µM
CC50 (NCI-H522; [2]): 6.76 µM
GI50 (MDA-MB-435): 1.62 µM
LC50 (MDA-MB-435): 6.45 µM
TGI (MDA-MB-435): 3.23 µM
GI50 (NCI-H23): 1.51 µM
TGI (NCI-H23): 3.09 µM
CC50 (NCI-H23; [2]): 6.31 µM
GI50 (OVCAR-4): 1.77 µM
TGI (OVCAR-4): 3.63 µM
TGI (HCC 2998): 3.38 µM
CC50 (HCC 2998; [2]): 6.16 µM

From ChEMBL document CHEMBL3044672, “N9- and N7-(Chloromethyl Phenymethyl)Chloropurine Derivatives from , '-Dichloroxylenes: Synthesis and Anticancer Activity” (2005)
